In brackets after ≈: the same amount, converted by molar mass.
Legend:
human KDR = target: T1, human KDR (Homo sapiens, UniProt P35968); assay: VEGF Receptor Kinase Assay; assay type: biochemical
T1 construct: cloning the cytoplasmic domain of the KDR kinase as an in frame fusion at the carboxy terminus of the GST gene; made in house; host or cells: Spodoptera frugiperda (Sf21) insect cells, baculovirus vector pAcG2T
Description: VEGF receptor kinase activity is measured by incorporation of radio-labeled phosphate into polyglutamic acid, tyrosine, 4:1 (pEY) substrate. The phosphorylated pEY product is trapped onto a filter membrane and the incorporation of radio-labeled phosphate quantified by scintillation counting.
The intracellular tyrosine kinase domains of human KDR (Terman, B. I. et al. Oncogene (1991) vol. 6, pp. 1677-1683.) and Flt-1 (Shibuya, M. et al. Oncogene (1990) vol. 5, pp. 519-524) were cloned as glutathione S-transferase (GST) gene fusion proteins. This was accomplished by cloning the cytoplasmic domain of the KDR kinase as an in frame fusion at the carboxy terminus of the GST gene. Soluble recombinant GST-kinase domain fusion proteins were expressed in Spodoptera frugiperda (Sf21) insect cells (Invitrogen) using a baculovirus expression vector (pAcG2T, Pharmingen).
1) Add 5 μl of inhibitor or control to the assay in 50% DMSO.
2) Add 35 μl of reaction mix containing 5 μl of 10× reaction buffer, 5 μl 25 mM ATP/10 μCi [^33P]ATP (Amersham), and 5 μl 10× substrate.
3) Start the reaction by the addition of 10 μl of KDR (25 nM) in enzyme dilution buffer.
4) Mix and incubate at room temperature for 15 minutes.
5) Stop by the addition of 50 μl stop solution.
6) Incubate for 15 minutes at 4° C.
7) Transfer a 90 μl aliquot to filter plate.
8) Aspirate and wash 3 times with wash solution. […]

physchem = conditions: thermodynamic from solid, room temperature

T1 sequence (P35968 786-1356 limits assumed): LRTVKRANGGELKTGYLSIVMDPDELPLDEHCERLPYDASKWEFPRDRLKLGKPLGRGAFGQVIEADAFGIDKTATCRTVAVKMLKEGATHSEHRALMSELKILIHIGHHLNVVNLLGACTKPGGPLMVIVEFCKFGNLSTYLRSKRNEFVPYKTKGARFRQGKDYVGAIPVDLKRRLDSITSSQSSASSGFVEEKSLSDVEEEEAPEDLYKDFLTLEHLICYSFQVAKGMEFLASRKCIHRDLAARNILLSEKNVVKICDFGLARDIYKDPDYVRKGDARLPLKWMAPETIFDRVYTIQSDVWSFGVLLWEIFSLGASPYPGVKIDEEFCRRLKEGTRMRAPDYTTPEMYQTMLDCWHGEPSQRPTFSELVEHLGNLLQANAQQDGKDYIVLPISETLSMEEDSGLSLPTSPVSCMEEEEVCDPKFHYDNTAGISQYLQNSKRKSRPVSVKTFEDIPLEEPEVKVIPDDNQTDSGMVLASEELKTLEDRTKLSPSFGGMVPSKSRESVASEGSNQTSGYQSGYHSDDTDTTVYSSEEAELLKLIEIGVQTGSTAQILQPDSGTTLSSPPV

kinase inhibitory activity (human KDR) | solubility (physchem; 50% aqueous IPA, aqueous with cosolvent or surfactant or cyclodextrin) | solubility (physchem; 50% aqueous ethanol, aqueous with cosolvent or surfactant or cyclodextrin) | solubility (physchem; water, pH 2.9, water) | SMILES
inhibits the kinase KDR |  |  |  | CNC(=O)N1CCN(Cc2ccnc(Nc3ncc(C#N)s3)c2)CC1 [Compound 4-4, 4-[2-(5-cyano-thiazol-2-ylamino)-pyridin-4-ylmethyl]-piperazine-1-carboxylic acid methylamide]
 | 12.3 mg/mL (≈ 34.4 mM) | 10.4 mg/mL (≈ 29.1 mM) | 6 mg/mL (≈ 16.8 mM) | CNC(=O)N1CCN(Cc2ccnc(Nc3ncc(C#N)s3)c2)CC1 [Form C, 4-[2-(5-cyano-thiazol-2-ylamino)-pyridin-4-ylmethyl]-piperazine-1-carboxylic acid methylamide]

From patent publication US20040023981A1, “Salt forms with tyrosine kinase activity” (priority 2002, published 2004)
